Results published in PubChem BioAssay AID1963985 (Molecular Pharmacology Branch, DTP, NCI, 2024).

Test system: 252836-082-R-J2-PDC tumor spheroids, viability
Assay: Anticancer human tumor 252836-082-R-J2-PDC patient-derived head and neck squamous cell carcinoma cell line growth inhibition [PI3K]
Settings: spheroids with HUVEC and MSC; for IC50: curve of first compound; for viability, T/C: stronger effect = lower value
Outline: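 High-throughput combination screen: PI3K inhibitors crossed with targeted small molecules on complex spheroids of tumor cells, HUVEC and MSCs at 37 degrees C, 5% CO2. Top concentration was at or near clinical Cmax (otherwise 10 microM), with half-log decrements.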
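Also: spheroids exposed to agents for seven days before readout.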
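For viability, T/C in this document: percent of vehicle DMSO control viability so 100% = untreated growth.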

Compound `CCCS(=O)(=O)Nc1ccc(F)c(C(=O)c2c[nH]c3ncc(-c4ccc(Cl)cc4)cc23)c1F` + COc1c(OCCCN2CCOCC2)ccc2c3n(c(=NC(=O)c4cnc(N)nc4)nc12)CCN3 has an IC50 (second compound 0.00316 µM) of 4400 nM, an IC50 (second compound 0.01 µM) of 4970 nM and an IC50 (second compound 0.0316 µM) of 2960 nM. The IC50 (second compound 0.1 µM) was < 31.6 nM, the IC50 (second compound 0.316 µM) was < 31.6 nM and the IC50 (second compound 1 µM) was < 31.6 nM. For the same compound, the viability, T/C (second compound 0.00316 µM, first compound 0.0316 µM) was 88.2%, the viability, T/C (second compound 0.00316 µM, first compound 0.1 µM) was 92.8% and the viability, T/C (second compound 0.00316 µM, first compound 0.316 µM) was 80.6%. For the same compound, the viability, T/C (second compound 0.00316 µM, first compound 1 µM) was 90.1%, the viability, T/C (second compound 0.00316 µM, first compound 3.16 µM) was 67.2% and the viability, T/C (second compound 0.00316 µM, first compound 10 µM) was 7.48%. The viability, T/C (second compound 0.01 µM, first compound 0.0316 µM) was 71.8%, the viability, T/C (second compound 0.01 µM, first compound 0.1 µM) was 73.6% and the viability, T/C (second compound 0.01 µM, first compound 0.316 µM) was 72.9%. For the same compound, the viability, T/C (second compound 0.01 µM, first compound 1 µM) was 87.5%, the viability, T/C (second compound 0.01 µM, first compound 3.16 µM) was 79.7% and the viability, T/C (second compound 0.01 µM, first compound 10 µM) was 8.12%. It also gave a viability, T/C (second compound 0.0316 µM, first compound 0.0316 µM) of 64.8%, a viability, T/C (second compound 0.0316 µM, first compound 0.1 µM) of 57.6% and a viability, T/C (second compound 0.0316 µM, first compound 0.316 µM) of 67.9%. For the same compound, the viability, T/C (second compound 0.0316 µM, first compound 1 µM) was 59%, the viability, T/C (second compound 0.0316 µM, first compound 3.16 µM) was 49.8% and the viability, T/C (second compound 0.0316 µM, first compound 10 µM) was 9.78%. The viability, T/C (second compound 0.1 µM, first compound 0.0316 µM) was 32.3%, the viability, T/C (second compound 0.1 µM, first compound 0.1 µM) was 39.8% and the viability, T/C (second compound 0.1 µM, first compound 0.316 µM) was 43.3%. The viability, T/C (second compound 0.1 µM, first compound 1 µM) was 43.3%, the viability, T/C (second compound 0.1 µM, first compound 3.16 µM) was 31.7% and the viability, T/C (second compound 0.1 µM, first compound 10 µM) was 4.74%. For the same compound, the viability, T/C (second compound 0.316 µM, first compound 0.0316 µM) was 16.1%, the viability, T/C (second compound 0.316 µM, first compound 0.1 µM) was 15.8% and the viability, T/C (second compound 0.316 µM, first compound 0.316 µM) was 16.7%. The viability, T/C (second compound 0.316 µM, first compound 1 µM) was 19.4%, the viability, T/C (second compound 0.316 µM, first compound 3.16 µM) was 18.1% and the viability, T/C (second compound 0.316 µM, first compound 10 µM) was 1.83%. For the same compound, the viability, T/C (second compound 1 µM, first compound 0.0316 µM) was 5.69%, the viability, T/C (second compound 1 µM, first compound 0.1 µM) was 5.15% and the viability, T/C (second compound 1 µM, first compound 0.316 µM) was 7.11%. For the same compound, the viability, T/C (second compound 1 µM, first compound 1 µM) was 7.02%, the viability, T/C (second compound 1 µM, first compound 3.16 µM) was 5.99% and the viability, T/C (second compound 1 µM, first compound 10 µM) was 1.31%.
